Test results published in ChEMBL document CHEMBL2046362, “Synthesis and evaluation of novel potent HCV NS5A inhibitors” (Bioorg Med Chem Lett, 2012).
pIC50: −log10 of the molar value.

Columns and labels:
[1] = Cytotoxicity against human HuH7 cells; assay type: cell-based, Huh-7
[2] = (§1) Cytotoxicity against human PBMC cells; assay type: cell-based; settings: PBMC cells
[3] = target: T1, Nonstructural protein 5A (Hepatitis C virus) (UniProt Q5L478); experiment: Inhibition of HCV NS5A assessed as antiviral activity against HCV by viral replicon assay; settings: Hepacivirus hominis
T1 sequence (whole entry): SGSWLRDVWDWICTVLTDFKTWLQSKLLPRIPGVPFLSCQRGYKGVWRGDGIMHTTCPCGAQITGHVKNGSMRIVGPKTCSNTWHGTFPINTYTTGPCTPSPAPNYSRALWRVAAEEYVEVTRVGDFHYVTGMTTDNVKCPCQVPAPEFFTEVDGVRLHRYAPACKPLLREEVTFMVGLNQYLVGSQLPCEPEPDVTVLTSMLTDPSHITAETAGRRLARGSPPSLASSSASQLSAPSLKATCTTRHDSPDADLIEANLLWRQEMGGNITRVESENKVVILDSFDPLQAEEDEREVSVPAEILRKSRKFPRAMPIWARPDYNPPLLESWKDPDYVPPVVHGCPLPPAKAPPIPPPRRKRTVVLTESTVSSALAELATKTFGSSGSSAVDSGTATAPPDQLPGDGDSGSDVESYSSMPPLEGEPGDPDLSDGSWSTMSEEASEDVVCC

[4] = system: Liver microsomes; experiment: Half life in human liver microsomes at 1 uM measured 5 to 60 mins post dose by LC-MS/MS nethod; assay type: ADME, Microsome
[5] = target: T2, Cytochrome P450 1A2 (Homo sapiens, UniProt P05177); experiment: (§2) Inhibition of CYP1A2; assay type: ADME
T2 sequence (P05177 whole entry): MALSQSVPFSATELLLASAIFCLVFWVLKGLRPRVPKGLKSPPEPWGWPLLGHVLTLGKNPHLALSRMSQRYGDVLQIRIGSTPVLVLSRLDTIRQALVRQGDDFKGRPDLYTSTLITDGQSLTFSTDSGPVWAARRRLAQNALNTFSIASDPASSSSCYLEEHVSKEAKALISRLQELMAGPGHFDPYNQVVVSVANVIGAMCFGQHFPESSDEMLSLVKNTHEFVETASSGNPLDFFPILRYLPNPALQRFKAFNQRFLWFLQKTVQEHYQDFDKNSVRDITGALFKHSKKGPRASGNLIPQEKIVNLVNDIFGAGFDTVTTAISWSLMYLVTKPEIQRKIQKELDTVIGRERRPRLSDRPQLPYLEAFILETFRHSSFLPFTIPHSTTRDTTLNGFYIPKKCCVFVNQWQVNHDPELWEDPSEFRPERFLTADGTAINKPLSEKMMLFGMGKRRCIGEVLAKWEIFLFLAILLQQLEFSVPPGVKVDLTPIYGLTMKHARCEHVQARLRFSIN

[6] = target: T3, CYP1A2 (Homo sapiens, UniProt P05177); experiment: as §2; assay type: ADME
T3 sequence (P05177 whole entry): T2 sequence (P05177 whole entry)

[7] = system: CCRF-CEM; experiment: Cytotoxicity against human CEM cells; assay type: cell-based
[8] = target: CYP2C9 (Homo sapiens, UniProt P11712); experiment: (§3) Inhibition of CYP2C9; assay type: ADME
[9] = target: Cytochrome P450 2C9 (Homo sapiens, UniProt P11712); experiment: as §3; assay type: ADME
[10] = Chemical stability in phosphate buffer assessed as compound degradation at pH 3 at 20 degC measured between 1 to 48 hrs during 48 hrs incubation period; settings: pH 3, 48 h
[11] = Chemical stability in phosphate buffer assessed as compound degradation at pH 7 at 20 degC measured between 2 to 48 hrs during 48 hrs incubation period; assay type: physicochemical; settings: pH 7, 48 h
[12] = system: PBMC; experiment: as §1; assay type: cell-based; settings: pbmc
[13] = target: CYP3A4 (Homo sapiens, UniProt P08684); experiment: (§4) Inhibition of CYP3A4; assay type: ADME
[14] = target: Cytochrome P450 3A4 (Homo sapiens, UniProt P08684); experiment: as §4; assay type: ADME
[15] = target: CYP2D6 (Homo sapiens, UniProt P10635); experiment: (§5) Inhibition of CYP2D6; assay type: ADME
[16] = target: Cytochrome P450 2D6 (Homo sapiens, UniProt P10635); experiment: as §5; assay type: ADME
[17] = system: Vero; experiment: Cytotoxicity against african green monkey Vero cells; assay type: cell-based; settings: chlorocebus sabaeus
[18] = Cytotoxicity against human primary lymphocytes; assay type: cell-based; settings: lymphocyte
[19] = system: Liver microsomes; experiment: Intrinsic clearance in human liver microsomes assessed per mg protein at 1 uM measured 5 to 60 mins post dose by LC-MS/MS nethod; assay type: ADME, Microsome

Cytochrome P450 2D6, sequence (P10635 whole entry): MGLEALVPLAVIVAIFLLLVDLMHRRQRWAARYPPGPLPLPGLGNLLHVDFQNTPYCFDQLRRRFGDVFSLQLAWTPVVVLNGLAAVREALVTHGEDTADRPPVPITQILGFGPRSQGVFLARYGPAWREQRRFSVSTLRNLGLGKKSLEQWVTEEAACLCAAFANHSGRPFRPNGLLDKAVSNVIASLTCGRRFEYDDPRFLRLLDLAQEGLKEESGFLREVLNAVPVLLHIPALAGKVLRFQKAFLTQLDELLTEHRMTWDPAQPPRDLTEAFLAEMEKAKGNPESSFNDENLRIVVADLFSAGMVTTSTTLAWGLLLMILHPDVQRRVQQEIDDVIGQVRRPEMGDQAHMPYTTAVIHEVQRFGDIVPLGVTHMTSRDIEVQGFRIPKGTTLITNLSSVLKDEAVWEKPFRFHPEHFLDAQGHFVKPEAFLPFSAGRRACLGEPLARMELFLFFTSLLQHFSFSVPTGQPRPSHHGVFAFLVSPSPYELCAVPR
CYP2D6, sequence (P10635 whole entry): as above
CYP2C9, sequence (P11712 whole entry): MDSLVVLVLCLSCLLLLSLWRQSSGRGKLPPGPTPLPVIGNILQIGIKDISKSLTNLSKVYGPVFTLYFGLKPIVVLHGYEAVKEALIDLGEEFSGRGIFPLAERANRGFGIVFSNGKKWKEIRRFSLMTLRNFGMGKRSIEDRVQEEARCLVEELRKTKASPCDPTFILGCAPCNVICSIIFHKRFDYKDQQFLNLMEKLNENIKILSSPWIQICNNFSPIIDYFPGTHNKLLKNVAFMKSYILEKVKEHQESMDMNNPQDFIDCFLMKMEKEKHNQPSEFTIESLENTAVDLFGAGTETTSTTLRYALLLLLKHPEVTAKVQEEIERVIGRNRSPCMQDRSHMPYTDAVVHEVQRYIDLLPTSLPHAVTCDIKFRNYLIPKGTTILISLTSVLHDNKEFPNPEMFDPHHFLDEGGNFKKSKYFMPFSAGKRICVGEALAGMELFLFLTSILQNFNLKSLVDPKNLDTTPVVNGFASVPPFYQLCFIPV
Cytochrome P450 2C9, sequence (P11712 whole entry): as above
CYP3A4, sequence (P08684 whole entry): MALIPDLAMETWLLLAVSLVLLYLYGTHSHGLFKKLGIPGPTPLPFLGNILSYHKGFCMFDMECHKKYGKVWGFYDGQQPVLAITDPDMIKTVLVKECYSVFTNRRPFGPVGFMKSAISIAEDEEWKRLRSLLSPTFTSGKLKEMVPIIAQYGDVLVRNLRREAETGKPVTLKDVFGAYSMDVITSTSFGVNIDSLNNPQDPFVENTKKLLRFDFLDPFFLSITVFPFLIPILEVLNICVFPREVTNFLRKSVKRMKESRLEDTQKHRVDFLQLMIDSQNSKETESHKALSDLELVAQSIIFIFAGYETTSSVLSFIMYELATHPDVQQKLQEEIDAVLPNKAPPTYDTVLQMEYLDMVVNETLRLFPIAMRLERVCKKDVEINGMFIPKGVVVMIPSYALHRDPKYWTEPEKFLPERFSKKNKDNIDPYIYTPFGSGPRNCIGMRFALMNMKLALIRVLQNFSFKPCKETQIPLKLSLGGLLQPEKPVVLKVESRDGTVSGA
Cytochrome P450 3A4, sequence (P08684 whole entry): as above

SMILES | CC50 [1] [µM] | CC50 [2] [µM] | EC90 [3] [nM] | t1/2 [4] [h] | pIC50 [5] | IC90 [6] [µM] | CC50 [7] [µM] | IC90 [8] [µM] | pIC50 [9] | Stability [10] | Stability [11] | CC50 [12] [µM] | IC90 [13] [µM] | pIC50 [14] | IC90 [15] [µM] | pIC50 [16] | CC50 [17] [µM] | Activity [18] | CLint [19] [µL/min/mg]
COC(=O)N[C@H](C(=O)N1C[C@H](N=[N+]=[N-])C[C@H]1c1ncc(-c2ccc(-c3ccc(-c4cnc([C@@H]5C[C@@H](N=[N+]=[N-])CN5C(=O)[C@@H](NC(=O)OC)C(C)C)[nH]4)cc3)cc2)[nH]1)C(C)C | > 1 | > 100 | 0.0542 | – | – | – | – | – | – | – | – | – | – | – | – | – | – | – | –
COC(=O)N[C@H](C(=O)N1CCC[C@H]1c1nc(F)c(-c2ccc(-c3ccc(-c4[nH]c([C@@H]5CCCN5C(=O)[C@@H](NC(=O)OC)C(C)C)nc4F)cc3)cc2)[nH]1)C(C)C | > 1 | – | 0.0212 | 2.063 | < 4.00 | > 100 | 3 | > 100 | < 4.00 | Stable | Stable | 19 | > 100 | 5.51 | > 100 | < 4.00 | > 100 | Toxic | 5.6
COC(=O)N[C@H](C(=O)N1CCC[C@H]1c1nc(Cl)c(-c2ccc(-c3ccc(-c4[nH]c([C@@H]5CCCN5C(=O)[C@@H](NC(=O)OC)C(C)C)nc4Cl)cc3)cc2)[nH]1)C(C)C | > 1 | – | 0.0114 | 1.992 | < 4.00 | > 100 | 12 | > 100 | 4.09 | Stable | Stable | 2.8 | > 100 | 4.86 | > 100 | < 4.00 | 100 | – | 5.8
